From patent publication US5948913A, “Hydrate for drug use” (Daiichi Pharmaceutical Co., Ltd., priority 1994, dated 1999)
Structures can show the parent of a compound that is named as a salt. Where two headings read alike, the source gives them in different places.

Tests used:
[1] = Weight / moisture change as a function of humidity; format: physicochemical
Method: On the other hand, when methanol was used as the solvent at the time of crystal precipitation, the thus obtained hydrochloride anhydrate of the compound of formula (1) also contained methanol, but it was able to remove the contained methanol almost completely when the crystals were dried with heating (120° C.) under a reduced pressure for several days or more.
(§1) (FIG. 2). Also, changes in its appearance were hardly found and its changes in the content (determination by HPLC) were not found under dry heating conditions (50° C., tightly sealed in a bottle, 1 month) or wet heating conditions (40° C., 75% humidity, 1 month).
FIG. 1 is a graph showing changes in the weight of 3-[2-[4-(3-chloro-2-methylphenyl)-1-piperazinyl]ethyl]-5,6-dimethoxy-1-(4- imidazolylmethyl)-1H-indazole hydrochloride anhydrate plotted as a function of humidity,
FIG. 2 is a graph showing changes in the weight of the 3.5-hydrate of the present invention plotted as a function of humidity, […]

[2] = Storage stability under dry heating and wet heating conditions; format: physicochemical
Method: as §1

[3] = in vivo
Method: (§2) With regard to the toxicity, its oral single administration toxicity was 200 mg/kg or more, and serious side effects were not observed in rats by repeated oral administration toxicity test over 10 days and repeated intravenous injection toxicity test over 10 days.

rats = details: rat, in vivo
Method: as §2

dogs = assay: Actions upon hemodynamics and electrocardiogram; format: in vivo, dog
Method: (§3) Particularly serious actions upon hemodynamics and electrocardiogram were not observed in dogs, and significant central nervous inhibition actions were not observed in rhesus monkeys even when a dose of 10 mg/kg was administered by intravenous injection.

rhesus monkeys = assay: Central nervous inhibition actions; format: in vivo, rhesus monkey; details: 10 mg/kg intravenous injection
Method: as §3

[4] = target: calmodulin-dependent phosphodiesterase (PDE); assay: Calmodulin inhibition action (calmodulin-dependent phosphodiesterase inhibition); format: biochemical; details: CaM and CaM-PDE of bovine brain origin, [3H]-cGMP, 30° C., 10 minutes; read-out: PDE inhibition effect, IC50
[5] = tested on: mouse nitrogen-loaded hypoxia model; assay: Mouse nitrogen-loaded hypoxia model; format: in vivo; details: mice, 30 mg/kg oral, 60 minutes before nitrogen gas feeding
Method: This test was carried out in accordance with the method of Albert Wauquier et al. (Japan J. Pharmacol., 38, 1-7 (1985)).
A total of 9 to 10 mice were used in 1 group, and each animal 60 minutes after oral administration of a drug to be tested (30 mg/kg) was put into a transparent container (500 ml capacity) equipped with an air outlet and then the container was fed with nitrogen gas at a rate of 5.0 L/min. The period of time from the commencement of gas feeding until respiratory arrest was measured.

[6] = tested on: hippocampus CA1 nerve cells; assay: Changes in hippocampus nerve cells in cerebral ischemia model; format: in vivo; details: jird, 5 minutes cerebral ischemia, 100 mg/kg oral 1 hour after ischemia loading
Method: When transient cerebral ischemia is loaded on a jird, hippocampus nerve cells start to get necrosis several days thereafter, and such a change is called delayed nerve cell death. The following test was carried out in accordance with the method of T. Kirino (Brain Res., 239, 57-69 (1982)). That is, each jird was loaded with 5 minutes of cerebral ischemia and then sacrificed to count the number of nerve cells remained in the hippocampus CA1 region.

[7] = tested on: rat microsphere cerebral embolus model; assay: Anti-edema effect in rat microsphere cerebral embolus model; format: in vivo; details: 8 hr, intravenous infusion, 24 hours after operation
Method: This test was carried out in accordance with the method of Nobutaka Demura et al. (Neuroscience Res., 17, 23-30 (1983)).
Under halothane anesthesia, a Slc;Wis rat (about 300 g) which has been treated with caudal vein cannulation in advance was subjected to neck incision to tear off the left side common carotid artery. Wing process palate artery and external carotid artery on the same side were also torn off and subjected to artery clipping. Carbon microspheres (50±10 μm in diameter) were suspended in 20% dextran and injected into the left side common carotid artery to effect dispersion of the microspheres in the left cerebral hemisphere via the left internal carotid artery, the common carotid artery was immediately clipped to stop bleeding from the microsphere-injected part, and then the artery clip was removed to restart blood circulation. Thereafter, each drug solution was continuously injected using an infusion pump from the catheter which has been inserted into caudal vein.
Each animal was sacrificed by decapitation 24 hours after the operation, and the brain was excised immediately after the decapitation to measure wet weights of both left and right hemispheres. Each tissue was then dried overnight at 150° C. to measure its dry weight and to calculate water content of each hemisphere.
As a control group, a vehicle group (20% dextran only) was arranged and treated in the same manner.

[8] = dry heating conditions (50° C., tightly sealed in a bottle, 1 month)
[9] = wet heating conditions (40° C., 75% humidity, 1 month)

COc1cc2c(CCN3CCN(c4cccc(Cl)c4C)CC3)nn(Cc3c[nH]cn3)c2cc1OC [Inventive Example 3, 3-[2-[4-(3-Chloro-2-methylphenyl)-1-piperazinyl]ethyl]-5,6-dimethoxy-1-(4-imidazolylmethyl)-1H-indazole dihydrochloride 3.5-hydrate]
changes in powder X-ray diffraction pattern or detectable water content ([1]; relative humidity changed from about 20% to about 80% at 25° C., FIG. 2): did not show changes
changes in appearance [2, 8]: hardly found
changes in the content (determination by HPLC) [2, 8]: not found
changes in appearance [2, 9]: hardly found
changes in the content (determination by HPLC) [2, 9]: not found

COc1cc2c(CCN3CCN(c4cccc(Cl)c4C)CC3)nn(Cc3c[nH]cn3)c2cc1OC [compound of the present invention, 3-[2-[4-(3-chloro-2-methylphenyl)-1-piperazinyl]ethyl]-5,6-dimethoxy-1-(4-imidazolylmethyl)-1H-indazole]
oral single administration toxicity [3]: ≥ 200 mg/kg
serious side effects (rats; iv): not observed
serious side effects (rats; po): not observed
particularly serious actions upon hemodynamics and electrocardiogram (dogs): not observed
significant central nervous inhibition actions (rhesus monkeys): not observed
IC50 [4]: 5.46 µM
increasing ratio of time until respiratory arrest (control group defined as 100%) [5]: 15.1%
protecting effect against nerve cell death [6]: distinct protecting effect
Hippocampus Nerve Cell Density ([6]; CA1 region): 131 ± 21.2 cells/mm
Water content, Control Side (right hemisphere) ([7]; dose 1 mg/kg/hr): 78.8 ± 0.1%
Water content, Disease Side (left hemisphere) ([7]; dose 1 mg/kg/hr): 80.1 ± 0.4%
Water content, Control Side (right hemisphere) ([7]; dose 2 mg/kg/hr): 78.7 ± 0.1%
Water content, Disease Side (left hemisphere) ([7]; dose 2 mg/kg/hr): 79.8 ± 0.3%

COc1cc2c(CCN3CCN(c4cccc(Cl)c4C)CC3)nn(Cc3c[nH]cn3)c2cc1OC [Inventive Example 2, 3-[2-[4-(3-Chloro-2-methylphenyl)-1-piperazinyl]ethyl]-5,6-dimethoxy-1-(4-imidazolylmethyl)-1H-indazole 1.5-hydrochloride (anhydrous crystals)]
moisture absorption in response to environmental humidity ([1]; room temperature, anhydrate after removal of methanol, FIG. 1): absorb moisture in response to the environmental humidity
